Source: patent publication US20250368627A1, “PYRAZOLESULFONAMIDES AS ANTITUMOR AGENTS” (Peloton Therapeutics, Inc., a fully owned subsidiary of …, priority 2019, published 2025)

Key:
[1] = molecular target: T1, DDB1DB/DCAF15 and RBM39 R1R2 complex (Homo sapiens, UniProt Q14498+Q66K64); assay: DCAF15 RBM39 Complex Formation Assay (FRET); type: binding; conditions: FRET ratio Em 665/Em 615, incubated overnight at 4° C.
T1 construct: Amino acids 150 to 331 of RBM39 were cloned into pGEX4T3; GST (from vector pGEX4T3); TEV cleavage site (N); made in house; host or cells: DDB1DB/His-DCAF15: baculovirus/Sf9 co-expression; RBM39 R1R2: E. coli (pGEX4T3)
How it was run: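 Ternary complex formation read by TR-FRET (Em 665/615, excitation 340 nm) after overnight incubation at 4° C of 20 nM baculovirus DDB1DB/His-DCAF15 and 50 nM E. coli RBM39 RRM1-RRM2 FLAG fragment with 14-point, 3-fold compound dilutions from 1 μM; EC50 from 4-parameter fit.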

[2] = test system: HCT116 human colorectal carcinoma cells; assay: CellTiter-Glo Luminescent Cell Viability Assay; type: cell-based; conditions: HCT-116, 72 h, 3 days
How it was run: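 CellTiter-Glo luminescence gave viability after 3 days of compound exposure in HCT116 cells grown in DMEM/10% FBS. Final concentrations ran from 5 to 0.0002 […] in 1:3 steps, each in triplicate, with IC50 derived from the curves.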

T1 sequence (Q66K64 whole entry, the tested form may be a part): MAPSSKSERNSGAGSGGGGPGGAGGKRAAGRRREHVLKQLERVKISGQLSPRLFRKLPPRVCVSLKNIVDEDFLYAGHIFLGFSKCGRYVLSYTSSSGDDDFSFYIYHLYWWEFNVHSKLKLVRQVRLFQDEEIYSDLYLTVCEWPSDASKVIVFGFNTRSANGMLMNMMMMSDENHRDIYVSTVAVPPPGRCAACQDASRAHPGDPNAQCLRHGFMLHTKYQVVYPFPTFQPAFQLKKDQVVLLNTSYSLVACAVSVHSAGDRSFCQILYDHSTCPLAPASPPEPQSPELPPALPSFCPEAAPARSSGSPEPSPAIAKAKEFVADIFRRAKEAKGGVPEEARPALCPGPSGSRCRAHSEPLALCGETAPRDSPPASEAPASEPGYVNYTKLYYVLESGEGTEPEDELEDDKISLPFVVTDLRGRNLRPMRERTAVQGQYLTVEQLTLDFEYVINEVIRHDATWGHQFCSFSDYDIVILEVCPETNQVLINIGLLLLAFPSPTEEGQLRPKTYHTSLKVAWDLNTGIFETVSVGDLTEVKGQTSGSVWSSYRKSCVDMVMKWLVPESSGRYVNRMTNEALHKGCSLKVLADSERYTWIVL
T1 sequence (Q14498 150-331): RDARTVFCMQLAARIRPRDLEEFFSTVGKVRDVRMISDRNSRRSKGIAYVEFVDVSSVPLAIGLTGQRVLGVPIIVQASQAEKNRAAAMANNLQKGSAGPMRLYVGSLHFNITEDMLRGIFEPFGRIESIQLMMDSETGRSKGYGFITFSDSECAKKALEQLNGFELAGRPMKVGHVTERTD
T1 sequence (Q16531 with tags, fused parts or gaps DEL396-708 partner): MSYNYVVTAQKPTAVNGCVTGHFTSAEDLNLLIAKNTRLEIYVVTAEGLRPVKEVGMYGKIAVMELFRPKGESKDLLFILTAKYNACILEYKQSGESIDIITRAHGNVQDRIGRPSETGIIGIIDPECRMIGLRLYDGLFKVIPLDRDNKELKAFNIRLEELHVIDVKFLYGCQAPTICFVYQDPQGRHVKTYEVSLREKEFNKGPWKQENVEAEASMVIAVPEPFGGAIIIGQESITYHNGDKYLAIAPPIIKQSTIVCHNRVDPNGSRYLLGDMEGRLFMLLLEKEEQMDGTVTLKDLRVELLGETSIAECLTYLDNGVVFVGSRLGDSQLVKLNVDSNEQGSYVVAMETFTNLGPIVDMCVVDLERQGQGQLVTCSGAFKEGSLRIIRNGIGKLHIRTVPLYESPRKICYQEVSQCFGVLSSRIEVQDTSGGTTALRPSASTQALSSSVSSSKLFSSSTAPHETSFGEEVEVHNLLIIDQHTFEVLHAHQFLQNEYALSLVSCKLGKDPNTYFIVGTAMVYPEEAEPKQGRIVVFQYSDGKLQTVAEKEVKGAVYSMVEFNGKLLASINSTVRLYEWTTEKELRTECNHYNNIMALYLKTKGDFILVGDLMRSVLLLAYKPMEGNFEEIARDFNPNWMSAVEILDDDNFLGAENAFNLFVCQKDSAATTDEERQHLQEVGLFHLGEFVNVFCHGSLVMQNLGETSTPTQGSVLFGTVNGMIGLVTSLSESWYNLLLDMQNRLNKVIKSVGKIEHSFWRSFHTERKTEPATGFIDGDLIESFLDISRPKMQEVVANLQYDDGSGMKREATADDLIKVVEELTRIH

Row | SMILES | IC50 [1] [nM] | EC50 [2] [nM]
1 | CC(C)(CO)n1cc(S(=O)(=O)Nc2ccc(Cl)c3c(C#N)c[nH]c23)cn1 [Compound 171, N-(4-chloro-3-cyano-1H-indol-7-yl)-1-(2-hydroxy-1,1-dimethyl-ethyl)pyrazole-4-sulfonamide] | < 250 | < 250
2 | Cc1ccc(NS(=O)(=O)c2cnn(C(C)(F)CO)c2)c2[nH]cc(C#N)c12 (stereo not shown) [Compound 293, N-(3-cyano-4-methyl-1H-indol-7-yl)-1-(1-fluoro-2-hydroxy-1-methyl-ethyl)pyrazole-4-sulfonamide] | < 250 | 250 to 1000
3 | Cc1ccc(NS(=O)(=O)c2cnn(CC3CCC3)c2)c2[nH]cc(C#N)c12 [Compound 78, N-(3-cyano-4-methyl-1H-indol-7-yl)-1-(cyclobutylmethyl)pyrazole-4-sulfonamide] | < 250 | 250 to 1000
4 | Cc1ccc(NS(=O)(=O)c2cnn(CC3(F)COC3)c2)c2[nH]cc(C#N)c12 [Compound 72, N-(3-cyano-4-methyl-1H-indol-7-yl)-1-[(3-fluorooxetan-3-yl)methyl]pyrazole-4-sulfonamide] | < 250 | 250 to 1000
5 | CCn1cc(S(=O)(=O)Nc2ccc(C)c3c(C#N)c[nH]c23)cn1 [Compound 68, N-(3-cyano-4-methyl-1H-indol-7-yl)-1-ethyl-pyrazole-4-sulfonamide] | < 250 | < 250
6 | Cn1cc(S(=O)(=O)Nc2cccc3c(Cl)c[nH]c23)cn1 [Compound 1, N-(3-chloro-1H-indol-7-yl)-1-methyl-1H-pyrazole-4-sulfonamide] | < 250 | 250 to 1000
7 | COC(=O)Cn1cc(S(=O)(=O)Nc2ccc(C)c3c(C#N)c[nH]c23)cn1 [Compound 133, methyl 2-[4-[(3-cyano-4-methyl-1H-indol-7-yl)sulfamoyl]pyrazol-1-yl]acetate] | < 250 | > 1000
8 | Cc1ccc(NS(=O)(=O)c2cnn(CC(=O)NC3CC(F)(F)C3)c2)c2[nH]cc(C#N)c12 [Compound 137, 2-[4-[(3-cyano-4-methyl-1H-indol-7-yl)sulfamoyl]pyrazol-1-yl]-N-(3,3-difluorocyclobutyl)acetamide] | < 250 | > 1000
9 | Cc1ccc(NS(=O)(=O)c2cnn(CF)c2N)c2[nH]cc(C#N)c12 [Compound 308, 5-amino-N-(3-cyano-4-methyl-1H-indol-7-yl)-1-(fluoromethyl)pyrazole-4-sulfonamide] | < 250 | 250 to 1000
10 | N#CCC1(n2cc(S(=O)(=O)Nc3ccc(Cl)c4c(C#N)c[nH]c34)cn2)COC1 [Compound 158, N-(4-chloro-3-cyano-1H-indol-7-yl)-1-[3-(cyanomethyl)oxetan-3-yl]pyrazole-4-sulfonamide] | < 250 | 250 to 1000
11 | CC(C)(C(N)=O)n1cc(S(=O)(=O)Nc2ccc(F)c3c(C#N)c[nH]c23)cn1 [Compound 240, 2-[4-[(3-cyano-4-fluoro-1H-indol-7-yl)sulfamoyl]pyrazol-1-yl]-2-methyl-propanamide] | < 250 | > 1000
12 | COCC(CO)n1cc(S(=O)(=O)Nc2ccc(C)c3c(C#N)c[nH]c23)cn1 (stereo not shown) [Compound 263, N-(3-cyano-4-methyl-1H-indol-7-yl)-1-[1-(hydroxymethyl)-2-methoxy-ethyl]pyrazole-4-sulfonamide] | < 250 | 250 to 1000
13 | C[C@@H](O)[C@H](C)n1cc(S(=O)(=O)Nc2ccc(Cl)c3c(C#N)c[nH]c23)cn1 [Compound 232, N-(4-chloro-3-cyano-1H-indol-7-yl)-1-[(1S,2R)-2-hydroxy-1-methyl-propyl]pyrazole-4-sulfonamide] | < 250 | 250 to 1000
14 | CC1(n2cc(S(=O)(=O)Nc3ccc(Cl)c4c(Cl)c[nH]c34)cn2)COC1 [Compound 115, N-(3,4-Dichloro-1H-indol-7-yl)-1-(3-methyloxetan-3-yl)pyrazole-4-sulfonamide] | < 250 | < 250
15 | CC(C)(CO)n1ncc(S(=O)(=O)Nc2cccc3c(C#N)c[nH]c23)c1Cl [Compound 251, 5-chloro-N-(3-cyano-1H-indol-7-yl)-1-(2-hydroxy-1,1-dimethyl-ethyl)pyrazole-4-sulfonamide] | < 250 | 250 to 1000
16 | C[C@@H](CO)Cn1cc(S(=O)(=O)Nc2ccc(Cl)c3c(C#N)c[nH]c23)cn1 [Compound 265, N-(4-chloro-3-cyano-1H-indol-7-yl)-1-[(2R)-3-hydroxy-2-methyl-propyl]pyrazole-4-sulfonamide] | < 250 | 250 to 1000
17 | Cc1ccc(NS(=O)(=O)c2cnn(C(F)F)c2)c2[nH]cc(C#N)c12 [Compound 11, N-(3-cyano-4-methyl-1H-indol-7-yl)-1-(difluoromethyl)pyrazole-4-sulfonamide] | < 250 | 250 to 1000
18 | CC(C)n1cc(S(=O)(=O)Nc2cccc3c(Cl)c[nH]c23)cn1 [Compound 39, N-(3-chloro-1H-indol-7-yl)-1-isopropyl-pyrazole-4-sulfonamide] | < 250 | 250 to 1000

Row | SMILES | IC50 [1] [nM] | EC50 [2] [nM]
19 | CCn1cc(S(=O)(=O)Nc2ccc(F)c3c(C#N)c[nH]c23)c(N)n1 [Compound 291, 3-amino-N-(3-cyano-4-fluoro-1H-indol-7-yl)-1-ethyl-pyrazole-4-sulfonamide] | < 250 | 250 to 1000
20 | N#Cc1c[nH]c2c(NS(=O)(=O)c3cn[nH]c3)ccc(F)c12 [Compound 214, N-(3-cyano-4-fluoro-1H-indol-7-yl)-1H-pyrazole-4-sulfonamide] | < 250 | > 1000
21 | O=S(=O)(Nc1cccc2c(Cl)c[nH]c12)c1cnn(CCF)c1 [Compound 35, N-(3-chloro-1H-indol-7-yl)-1-(2-fluoroethyl)pyrazole-4-sulfonamide] | < 250 | 250 to 1000
22 | N#Cc1c[nH]c2c(NS(=O)(=O)c3cnn(CC(F)(F)F)c3)ccc(F)c12 [Compound 216, N-(3-cyano-4-fluoro-1H-indol-7-yl)-1-(2,2,2-trifluoroethyl)pyrazole-4-sulfonamide] | < 250 | 250 to 1000
23 | Cn1ncc(S(=O)(=O)Nc2ccc(Cl)c3c(C#N)c[nH]c23)c1C(F)F [Compound 150, N-(4-chloro-3-cyano-1H-indol-7-yl)-5-(difluoromethyl)-1-methyl-pyrazole-4-sulfonamide] | < 250 | 250 to 1000
24 | O=S(=O)(Nc1ccc(Cl)c2c(Cl)c[nH]c12)c1cnn(C2(CO)COC2)c1 [Compound 167, N-(3,4-dichloro-1H-indol-7-yl)-1-[3-(hydroxymethyl)oxetan-3-yl]pyrazole-4-sulfonamide] | < 250 | 250 to 1000
25 | Cc1ccc(NS(=O)(=O)c2cnn(CCCF)c2)c2[nH]cc(C#N)c12 [Compound 73, N-(3-cyano-4-methyl-1H-indol-7-yl)-1-(3-fluoropropyl)pyrazole-4-sulfonamide] | < 250 | < 250
26 | CC(C)(O)Cn1cc(S(=O)(=O)Nc2ccc(Cl)c3c(Cl)c[nH]c23)cn1 [Compound 177, N-(3,4-dichloro-1H-indol-7-yl)-1-(2-hydroxy-2-methyl-propyl)pyrazole-4-sulfonamide] | < 250 | 250 to 1000
27 | N#Cc1c[nH]c2c(NS(=O)(=O)c3cnn(CCO)c3)ccc(Cl)c12 [Compound 162, N-(4-chloro-3-cyano-1H-indol-7-yl)-1-(2-hydroxyethyl)pyrazole-4-sulfonamide] | < 250 | 250 to 1000
28 | CC(C)(CO)n1cc(S(=O)(=O)Nc2ccc(F)c3c(C#N)c[nH]c23)c(Cl)n1 [Compound 261, 3-chloro-N-(3-cyano-4-fluoro-1H-indol-7-yl)-1-(2-hydroxy-1,1-dimethyl-ethyl)pyrazole-4-sulfonamide] | < 250 | > 1000
29 | Cc1nn(C)cc1S(=O)(=O)Nc1ccc(C)c2c(C#N)c[nH]c12 [Compound 114, N-(3-cyano-4-methyl-1H-indol-7-yl)-1,3-dimethyl-pyrazole-4-sulfonamide] | < 250 | 250 to 1000
30 | Cc1ccc(NS(=O)(=O)c2cnn(C34CC(C3)C4)c2)c2[nH]cc(C#N)c12 [Compound 218, 1-(3-bicyclo[1.1.1]pentanyl)-N-(3-cyano-4-methyl-1H-indol-7-yl)pyrazole-4-sulfonamide] | < 250 | 250 to 1000
31 | CS(=O)(=O)CCn1cc(S(=O)(=O)Nc2cccc3c(Cl)c[nH]c23)cn1 [Compound 9, N-(3-chloro-1H-indol-7-yl)-1-(2-methylsulfonylethyl)pyrazole-4-sulfonamide] | < 250 | 250 to 1000
32 | Cc1ccc(NS(=O)(=O)c2cnn(CC3CC3)c2)c2[nH]cc(C#N)c12 [Compound 69, N-(3-cyano-4-methyl-1H-indol-7-yl)-1-(cyclopropylmethyl)pyrazole-4-sulfonamide] | < 250 | < 250
33 | Cc1ccc(NS(=O)(=O)c2cnn(CC(N)=O)c2)c2[nH]cc(C#N)c12 [Compound 141, 2-[4-[(3-cyano-4-methyl-1H-indol-7-yl)sulfamoyl]pyrazol-1-yl]acetamide] | < 250 | > 1000
34 | N#Cc1c[nH]c2c(NS(=O)(=O)c3cnn(CC4(F)CNC4)c3)ccc(Cl)c12 [Compound 256, N-(4-chloro-3-cyano-1H-indol-7-yl)-1-[(3-fluoroazetidin-3-yl)methyl]pyrazol-4-sulfonamide] | < 250 | > 1000
35 | Cc1ccc(NS(=O)(=O)c2cnn(C(C)(C)CC(C)(C)O)c2)c2[nH]cc(C#N)c12 [Compound 231, N-(3-cyano-4-methyl-1H-indol-7-yl)-1-(3-hydroxy-1,1,3-trimethyl-butyl)pyrazole-4-sulfonamide] | < 250 | < 250
